The values that follow come from patent publication US20250092395A1, “A GLUN2D INHIBITOR FOR USE IN THE TREATMENT OR RELAPSE PREVENTION OF A DEPRESSIVE EPISODE” (priority 2022, published 2025).

“Also recorded” adds a separate entry of the source.

For assay [1], the system named is mice subjected to the chronic despair model (CDM). Briefly: Chronic despair model (CDM) swim test, immobility time. The class given is in vivo. The settings on record: for immobility time of CDM mice treated with NAB-14, comedication: CIQ (10 mg/kg) or lorazepam (0,125 mg/kg) applied prior to NAB-14. As for the experimental part: Induction phase: Mice were forced to swim in a glass cylinder (0 26 cm, 60 cm high) filled to 25 cm with 25° C. warm water for 10 min on 5 consecutive days. After the swimming, the animals were kept in their cages for two days before treatment and experiment readout was performed. The immobility time was measured in each session.
(§1) Behavioral Readout: After the treatment intervention, animals were either tested in an additional swim session (test day) to measure immobility time or tested in the InteliCage using the Nose-pokes sucrose preference test. For the assessment of the immobility time, mice were videotaped and two independent raters who were blinded to the experimental group analyzed the videos. Immobility time was defined as the cumulative time that the animals spend stationary with only enough movements of the tails or the forepaws to keep the head above the water surface. No distance is actively travelled except for passive floating, no directed movement of the front paws observed and the body of the animal mostly oriented parallel to the walls of the cylinder.

The subject of another assay is CDM mice. Briefly: Nose-poke sucrose preference test in CDM mice. The format is in vivo. As to conditions: CIQ or lorazepam applied prior to NAB-14.
Text: as §1
The IntelliCage system (TSE Systems) allows simultaneous analysis of spontaneous and exploratory behavior, activity pattern, and drinking preference of up to 16 group-housed mice implanted with radio-frequency identification (RFID) transponders. The unit consists of an open common space with 4 red shelters in the center and 4 recording corners. Mice have free access to food in the middle of the IntelliCage, water is available in the corners behind remote-controlled guillotine doors. Each corner is equipped with 2 drinking bottles and permits the visit of only one mouse at the same time. The scored parameters—the nosepokes toward the doors and the licks on the bottles—were monitored by a PC-based tracking software (IntelliCage Plus, TSE Systems). Initially, the mice were allowed to adapt to the IntelliCage for at least 7 days with water available ad libitum in all corners. Then for 3 days the animals were habituated to the sucrose taste: in each corner one of the bottles was filled with 1% sucrose solution and the other one with water. Both doors in the corner were open allowing free choice between the bottles. Next, a nosepoke adaptation period was carried out, where all doors were closed and the mice had to perform a nosepoke to open them. The opened door closes automatically after 5 s of drinking. In all tasks involving sucrose-filled bottles, the positions of the bottles were exchanged every 24 h. The Nosepoke SPT protocol was used (see Alboni et al.) for measurement of sucrose preference with gradually increasing effort (number of nosepokes) to reach the sucrose bottles for a short period of time (12 h). In this paradigm each door opens in response to a nosepoke and closes after 5 s licking. The number of nosepokes needed to open a door to a side with a sucrose containing bottle gradually increases (1, 2, 3, 4, 5, 6, 8, 10, 12, 16, 20, 24) after every 8 sucrose licking sessions. For each bottle the number of licks was recorded and the averaged sucrose preference was calculated as percentage of the total number of licks.

Assay [2] deals with CA3-CA1 synapse in hippocampal brain slices of CDM mice. Briefly: aLTP/aLTD inducibility in hippocampal brain slices of CDM mice after in vivo treatment. As to conditions: for LTP reestablishment by NAB-14, comedication / CDM-induced blockade of LTP inducibility (aLTP) / LTD inducibility (EPSP amplitude after aLTD protocol): CDM mice; for LTP reestablishment by NAB-14, comedication: CIQ or lorazepam injected 20 min prior to NAB-14; for CDM-induced blockade of LTP inducibility (aLTP): pretreatment; for LTD inducibility (EPSP amplitude after aLTD protocol): treatment after CDM. How it is done:
Animals were preoxygenated in a 100% oxygen atmosphere for 5 min before cervical dislocation and decapitated according to national and institutional guidelines. Transverse 300 […] were cut from hippocampus with a Vibratome (VT1200, Leica, Japan). Slices were prepared in artificial cerebrospinal fluid (ACSF) containing (in mmol/I): 125 NaCl, 25 NaHCO3, 1.25 NaH2PO4, 2.5 KCL, 1 MgCl2, 27 Glucose, 2 CaCl2) bubbled with carbogen (95% O2, 5% CO2).
After 20 min resting time at 35° C., slices were kept at room temperature in aCSF and transferred into the recording chamber (volume approx. 2-3 ml) and continuously superfused with aCSF (rate approx. 5-10 ml/min-). Differential interference contrast video microscopy was used to identify location of CA1 pyramidal neurons (Zeiss Axioskop 2 FS plus, Zeiss Microscopy, Germany). Beside optical identification neurons were classified according to their characteristic firing frequency adaptation to long depolarising current pulses. Borosilicate glass tubes (2.0 mm outer diameter, 0.5 mm wall thickness; Hilgenberg, Germany) were used to pull patch pipettes. Pipettes with a resistance of 5-10 MΩ were used and series resistance of 10-50 MΩ was compensated by bridge balance. Patch pipettes were filled with an internal solution containing (in mM) for EPSP-measurements: 132K-gluconate, 20KCL, 2MgCl2, 10Hepes, 0.1EGTA, 4 Na2ATP, 0.3NaGTP. PH was adjusted to 7.2 with KOH. For current measurements: 135Csgluconate, 2CsCl, 5 QX314, 10 Hepes, 10EGTA, 2MgCl2, 2Na2ATP, 2TEACI, pH was adjusted to 7.2 with HCl. Osmolarity (280-300 mosmol/1) was controlled at the beginning of each experimental day with Osmomat (Gonotec GmbH, Germany).
A stimulation pipette (patch pipette with 1-3 MΩ resistance when filled with internal solution) was placed superficially in the stratum radiatum of the CA1 region in approximately […] distance to the pyramidal cell layer. Subthreshold excitatory postsynaptic potentials (EPSPs, 2 7 mV) were evoked by Schaffer collateral stimulation with voltage pulses of 10-80 V (frequency of 0.1 Hz, duration of 200 μs) using a stimulus isolator (Model 2100 Isolated pulse stimulator, Carlsborg, U.S.A.). Resting membrane potentials were between −75 and −65 mV and holding potential was −70 mV. 50 ms current test pulses (leading to 5-10 mV hyperpolarization) were applied to control input and series resistances after every 10th EPSP. EPSPs were combined with APs triggered by short (3 ms) current application of 900 pA via the patch-clamp electrode. EPC-10 amplifiers (HEKA, Germany) were used and signals were filtered at 5 kHz. Patchmaster NEXT software (Version 1.2, HEKA, Germany) was used for data acquisition and experiments were performed at room temperature.
aLTP: Five EPSPs and five postsynaptic APs were paired at 100 Hz with a 5 ms delay (AP after EPSP). Five of these bursts of synchronized EPSP→AP pairs were applied at theta frequency (5 Hz), followed by an interval of 10 sec and 4 more theta blocks, resulting in 125 EPSP/AP pairings.
aLTD: 360 postsynaptic APs were pared with 360 EPSPs with a delay of 20-30 ms between each AP/EPSP pairing at a frequency of 1 Hz. 1 Hz LTD: 600 EPSPs were elicited at a frequency of 1 Hz whilst CA1 pyramidal cell membrane potential was hold at −60 mV.
Long-term plasticity or molecular analyses were assessed as described above after the induction phase of the CDM and the specific treatment.
EPSP measurement: For baseline measurement, the mean amplitudes of 30 consecutive EPSPs before the induction protocol were calculated. 25 min after LTP induction the mean amplitude of 30 consecutive EPSPs was calculated and compared to the baseline of the same measurement. Changes of EPSP amplitudes were expressed as percentages of the baseline measurement and analysed for each experimental group applying a two-tailed Wilcoxon test. The differences between separate experimental groups were assessed using the Mann-Whitney test, not assuming normal distribution. […]

The test system of a further assay is AMPAR and NMDAR currents. Briefly: Control experiments: currents recorded at −80 mV and +40 mV. The format is cell-based, mice. As to conditions: CNQX 10 μM; for currents recorded at −80 mV: then addition of DAPV 100 μM; for currents recorded at +40 mV: DAPV 100 μM.
Assay [3] deals with CA3-CA1 synapse, CA1 pyramidal neurons in hippocampal brain slices. Briefly: LTP/LTD protocols and wash-in in brain slices of unstressed mice, substance in bathing solution. The class given is cell-based. The settings on record: hydrochloride; for LTP inducibility, associative LTP protocol (aLTP): unstressed mice, bath with picrotoxin, R,S-ketamine 10 μM, S-ketamine 5 μM.

As to `COc1ccc(OCC2c3cc(OC)c(OC)cc3CCN2C(=O)c2cccc(Cl)c2)cc1` (stereo not shown) [CIQ], the “immobility time of CDM mice treated with NAB-14, comedication” value in assay [1] is “did not improve; also recorded: blocked NAB-14 effects”. Besides, in the assay on CDM mice, the “sucrose preference of CDM mice treated with NAB-14, comedication” value was “did not improve”. The “LTP reestablishment by NAB-14, comedication” value in assay [2] is recorded as “abolishing LTP reestablishment; also recorded: blocked NAB-14 effects completely”.

For `N#Cc1cc2c(cc1[N+](=O)[O-])=NC(=O)C(=O)N=2` [CNQX, 6-Cyano-7-nitroquinoxaline-2,3-dione], in the assay with AMPAR and NMDAR currents, the “currents recorded at −80 mV” value was “fully blocked” and the “currents recorded at +40 mV” value is listed as “only partially be reduced; also recorded: only partially influenced”.

With `N[C@H](CCCP(=O)(O)O)C(=O)O` [DAPV, D-(−)-2-Amino-5-phosphonopentanoic acid], in the assay on AMPAR and NMDAR currents, the “currents recorded at −80 mV” value was “did not significantly change; also recorded: did not have further effects” and the “currents recorded at +40 mV” value is recorded as “full blockade; also recorded: fully blocked”.

Turning to `N[C@@]1(c2ccccc2Cl)CCC[C@@H](O)C1=O` [HNK, 2R,6R Hydroxynorketamine], in assay [2], the “CDM-induced blockade of LTP inducibility (aLTP)” value is “neither HNK nor mGluR2 antagonist 1 treatment did change this blockade” and the “LTD inducibility (EPSP amplitude after aLTD protocol)” value is listed as “abolishes this reduction of amplitude; also recorded: completely blocked the LTD inducibility”. In addition, the “EPSP amplitude after aLTD” value in assay [2] (treatment prior to swim sessions (before CDM), male and female mice) is “complete revers of EPSP amplitudes”.

As for `COc1ccc2nc(/C=C/c3cccc([N+](=O)[O-])c3)n(-c3ccc(C(=O)O)cc3)c(=O)c2c1` [QNZ46, 4-[6-Methoxy-2-[(1E)-2-(3-nitrophenyl)ethenyl]-4-oxo-3(4H)-quinazolinyl]-Benzoic acid], the immobility time result in assay [1] (CDM mice, 7 mg/kg i.p. two hours before behavioral readout, n=10) was “significantly reduced”.

For `CN[C@]1(c2ccccc2Cl)CCCCC1=O.Cl` [S-ketamine, S-Ketamine hydrochloride], in assay [3], the “EPSP amplitude after associative LTD protocol (aLTD, NMDAR-independent)” value is listed as “unaffected; also recorded: neither R,S-ketamine (10 μM) nor S-ketamine (5 μM) had an effect”; the “LTD inducibility, non-associative 1 Hz LTD protocol (NMDAR-dependent)” value is reported as “fully blocked; also recorded: abolished”; the “LTP inducibility, non-associative 100 Hz LTP protocol” value was “significant blockade of inducibility of LTP”; the aLTP induction result is recorded as “neither K nor SK blocked aLTP induction; also recorded: not affected”. Further, the “LTP inducibility, associative LTP protocol (aLTP)” value in assay [3] was “significant blockade of inducibility of LTP”. In addition, the “LTP inducibility, associative LTP protocol (aLTP)” value in assay [3] (listed as SK) is on record as “complete inhibition of LTP”.

Regarding `O=C1Nc2ccc(Cl)cc2C(c2ccccc2Cl)=NC1O` (stereo not shown) [lorazepam], the “immobility time of CDM mice treated with NAB-14, comedication” value is reported as “did not improve” in assay [1] and “blocked NAB-14 effects” in assay [1] (listed as Lorazepam). The “sucrose preference of CDM mice treated with NAB-14, comedication” value with CDM mice is reported as “did not improve”. Moreover, the “LTP reestablishment by NAB-14, comedication” value in assay [2] is “abolishing LTP reestablishment”; in assay [2] (listed as Lorazepam) it was “blocked NAB-14 effects completely”. The “LTP inducibility, lorazepam alone” value in assay [2] (control and CDM condition) is “did block LTP inducibility”.

Take `NC(=O)c1cc(-c2ccc(F)cc2)c2ccc(CN3C(=O)CCC3=O)cc2n1` [mGluR2 antagonist 1, 7-[(2,5-dioxopyrrolidin-1-yl)methyl]-4-(4-fluorophenyl)quinoline-2-carboxamide]: in assay [2], the “CDM-induced blockade of LTP inducibility (aLTP)” value is recorded as “neither HNK nor mGluR2 antagonist 1 treatment did change this blockade” and the “LTD inducibility (EPSP amplitude after aLTD protocol)” value was “abolishes this reduction of amplitude; also recorded: completely blocked the LTD inducibility”.
